The results in this text go back to ChEMBL document CHEMBL5724558, “Image-based profiling of drug vulnerabilities in CRC organoids” (2024).

Holding throughout (assay type): functional, Homo sapiens
Design in all cases: dose or concentration left out as unconfirmed

Assay [1] relates to Colon cancer organoid. Briefly: Image-based profiling of donated chemical probes and chemogenomic kinase set in O06 CRC organoid. Image analysis is performed on the sum area metric, and the data were normalized to the DMSO control. After imaging the organoid viability is measured using the OneGloEX Luciferase Assay System. The normalized viability data and sum area are reported.

Assay [2] has as its system Colon cancer organoid. Put plainly: Image-based profiling of donated chemical probes and chemogenomic kinase set in O21 CRC organoid. Image analysis is performed on the sum area metric, and the data were normalized to the DMSO control. After imaging the organoid viability is measured using the OneGloEX Luciferase Assay System. The normalized viability data and sum area are reported.

In assay [3] the test system is Colon cancer organoid. Put plainly: Image-based profiling of donated chemical probes and chemogenomic kinase set in O09 CRC organoid. Image analysis is performed on the sum area metric, and the data were normalized to the DMSO control. After imaging the organoid viability is measured using the OneGloEX Luciferase Assay System. The normalized viability data and sum area are reported.

Where “and” joins values, the source holds several entries; their conditions need not be identical. Equal entries are not always repeated.

As to `CCOCCn1cc(C(=O)Nc2ccc(-n3nc(-c4cccnc4)cc3C(F)(F)F)cn2)ccc1=O` [BI 1935], the “Cell Viability” value is 106.067% and 119.906% in assay [1] (Replication number 1); 111.838% and 96.8907% in assay [1] (Replication number 2); 115.071% and 97.8008% in assay [2] (Replication number 1); 110.735% and 98.9796% in assay [2] (Replication number 2); 99.959% and 99.8673% in assay [3] (Replication number 1); 61.8115% and 83.5341% in assay [3] (Replication number 2).

In the case of `OCCn1cc(-c2cnc3nnn(Cc4ccc5ncccc5c4)c3n2)cn1` [PF-04217903], the “Cell Viability” value in assay [1] (Replication number 1) was 92.042% and 100.376%; in assay [1] (Replication number 2), 104.418% and 102.005%; in assay [2] (Replication number 1) it was 106.76% and 119.861%; in assay [2] (Replication number 2), 108.21% and 119.755%; in assay [3] (Replication number 1), 126.877% and 95.995%; in assay [3] (Replication number 2), 92.9183% and 79.3656%.

On to `C[C@H](NC(=O)Nc1cc2[nH]ncc2c(CO)n1)c1ccccn1` [ERKi-NC], for which the “Cell Viability” value in assay [1] (Replication number 1) is 123.043% and 110.304%; in assay [1] (Replication number 2), 54.2126% and 97.1276%; in assay [2] (Replication number 1), 112.403% and 96.6365%; in assay [2] (Replication number 2), 96.9008% and 86.2245%; in assay [3] (Replication number 1), 84.2492% and 86.249%; in assay [3] (Replication number 2), 90.2054% and 105.732%.

Take `CC(=O)N1CCC(c2ccc(C(=O)NC(=N)N)cc2C(F)(F)F)CC1` [BI 9627]: the “Cell Viability” value was 92.5077% and 96.2529% in assay [1] (Replication number 1); 95.2505% and 62.3038% in assay [1] (Replication number 2); 89.2518% and 118.176% in assay [2] (Replication number 1); 98.5958% and 100.51% in assay [2] (Replication number 2); 138.648% and 103.929% in assay [3] (Replication number 1); 116.481% and 107.777% in assay [3] (Replication number 2).

In the case of `Cn1cc(CCn2cnc(-c3cnn(C)c3)c2-c2ccc(C#N)cc2)cn1`, the “Cell Viability” value in assay [1] (Replication number 1) was 175.784% and 127.57%; in assay [1] (Replication number 2), 222.733% and 136.219%; in assay [2] (Replication number 1), 99.776% and 95.2319%; in assay [2] (Replication number 2), 89.4066% and 104.177%; in assay [3] (Replication number 1), 104.672% and 93.4312%; in assay [3] (Replication number 2) it was 96.0156% and 86.9496%.

As to `Nc1ccc(C(=O)Nc2cccc(-c3nc(N4CCOCC4)c4oc5ncccc5c4n3)c2)cn1`, the “Cell Viability” value is 13.3803% and 32.049% in assay [1] (Replication number 1); 74.5315% and 72.4739% in assay [2] (Replication number 1); 83.2595% and 89.2407% in assay [2] (Replication number 2); 90.7287% and 76.048% in assay [3] (Replication number 1); 104.901% and 91.2435% in assay [3] (Replication number 2).

Consider `CCN(Cc1ccc(Cl)cc1)c1ncc(C(=O)NCCCN2CCCC2=O)c(NC2CCCC2)n1`, for which the “Cell Viability” value is 89.2777% and 109.917% in assay [1] (Replication number 1); 114.236% and 99.6728% in assay [1] (Replication number 2); 106.065% and 92.3751% in assay [2] (Replication number 1); 124.526% and 113.344% in assay [2] (Replication number 2); 161.079% and 96.7604% in assay [3] (Replication number 1); 165.307% and 110.619% in assay [3] (Replication number 2).

As for `Nc1nc(NCc2ccccc2)nc(-c2cccc(CO)c2)n1` [ZINC32547799], the “Cell Viability” value in assay [1] (Replication number 1) is 89.5578% and 102.51%; in assay [1] (Replication number 2), 72.3824% and 71.8405%; in assay [2] (Replication number 1) it was 95.0079% and 87.3045%; in assay [2] (Replication number 2), 101.984% and 101.971%; in assay [3] (Replication number 1), 98.3992% and 98.4744%; in assay [3] (Replication number 2), 101.098% and 100.714%.

`COc1ccc(CCc2nc3cc(-c4c(C)noc4C)ccc3n2C[C@H](C)N2CCOCC2)cc1Cl`: the “Cell Viability” value was 175.76% and 138.685% in assay [1] (Replication number 1); 131.173% and 129.766% in assay [1] (Replication number 2); 102.391% and 140.496% in assay [2] (Replication number 1); 95.0347% and 135.859% in assay [2] (Replication number 2); 60.3888% and 74.4204% in assay [3] (Replication number 1); 92.6649% and 71.2702% in assay [3] (Replication number 2).

`CN1CCN(C(=O)C(C)(C)c2ccc(C(=O)Nc3cn4cc(-c5cc(C(C)(C)C)cc(C(C)(C)C)c5)ccc4n3)cc2)CC1` [T3-CLK-N]: the “Cell Viability” value was 75.6351% and 77.2834% in assay [1] (Replication number 1); 96.9336% and 98.0752% in assay [1] (Replication number 2); 88.9475% and 97.2186% in assay [2] (Replication number 1); 93.8303% and 107.653% in assay [2] (Replication number 2); 89.0201% and 93.1776% in assay [3] (Replication number 1); 119.23% and 117.123% in assay [3] (Replication number 2).
